# In patent US6610675B1 (priority 1980, dated 2003):
# Key:
# thymus weight in rats = assay: Thymus inhibition testing (subcutaneous administration); assay type: in vivo, rat; conditions: three days
# Description: Several further studies were undertaken to determine the effects of selected compounds of the invention on thymi weights in rats when the drugs were systemically administered. In each of these studies, male Sprague-Dawley rats were used. […] On the fifth day (48 hours following the last treatment), the animals were sacrificed and the thymi weights were recorded. […] It is evident that the higher the inhibition of thymus activity at a given dose, the more toxic the compound is.
# [1] = tested on: granulation tissue formation caused by implantation of cotton pellets; assay: Granuloma formation test (local cotton pellet granuloma assay); assay type: in vivo, rat
# Description: The test compound was dissolved in acetone and aliquots of varying concentrations were injected into cotton pellets. The pellets were dried and then one pellet was implanted beneath the skin of each test rat. Six days later, the animals were sacrificed and the granulation tissue (granuloma) which formed in and around the implanted pellet was removed, dried and weighed. In addition, the thymi and adrenals were removed and weighed.
# [2] = chloromethyl 11β-hydroxy-17α-isopropoxycarbonyloxyandrost-4-en-3-one-17β-carboxylate = 1
smiles,measurement,setting,value
"CCCCCOC(=O)O[C@]1(C(=O)OCCl)[C@H](C)C[C@H]2[C@@H]3CCC4=CC(=O)C=C[C@]4(C)[C@@]3(F)[C@@H](O)C[C@@]21C [chloromethyl 9β-fluoro-11β-hydroxy-16α-methyl-17α-pentyloxycarbonyloxyandrosta-1,4-dien-3-one-17β-carboxylate]",Body weight gain,"thymus weight in rats; Table IX, 1 mg/kg/day s.c.",18.0 ± 1.5 g
same,Thymus wt.,"thymus weight in rats; Table IX, 1 mg/kg/day s.c.",387 ± 23 mg
same,Thymus wt. Decrease,"thymus weight in rats; Table IX, 1 mg/kg/day s.c.",9.2%
same,Body weight gain,"thymus weight in rats; Table IX, 3 mg/kg/day s.c.",15.6 ± 1.3 g
same,Thymus wt.,"thymus weight in rats; Table IX, 3 mg/kg/day s.c.",347 ± 15 mg
same,Thymus wt. Decrease,"thymus weight in rats; Table IX, 3 mg/kg/day s.c.",18.5%
same,Body weight gain,"thymus weight in rats; Table IX, 10 mg/kg/day s.c.",17.4 ± 1.5 g
same,Thymus wt.,"thymus weight in rats; Table IX, 10 mg/kg/day s.c.",357 ± 22 mg
same,Thymus wt. Decrease,"thymus weight in rats; Table IX, 10 mg/kg/day s.c.",16.2%
same,Body weight gain,"thymus weight in rats; Table IX, 30 mg/kg/day s.c.",13.5 ± 1.0 g
same,Thymus wt.,"thymus weight in rats; Table IX, 30 mg/kg/day s.c.",335 ± 17 mg
same,Thymus wt. Decrease,"thymus weight in rats; Table IX, 30 mg/kg/day s.c.",21.4%
"CCOC(=O)O[C@]1(C(=O)OCCl)[C@@H](C)C[C@H]2[C@@H]3CCC4=CC(=O)C=C[C@]4(C)[C@@]3(F)[C@@H](O)C[C@@]21C [chloromethyl 17α-ethoxycarbonyloxy-9α-fluoro-11β-hydroxy-16β-methylandrosta-1,4-dien-3-one-17β-carboxylate]",Body wt. gain,"[1]; Table V-a, 0.3 μg/pellet",32.5 ± 1.1 g
same,Granulation tissue Dry wt.,"[1]; Table V-a, 0.3 μg/pellet",61.8 ± 5.7 mg
same,Granulation tissue Dry wt. Inhibition,"[1]; Table V-a, 0.3 μg/pellet",22.8%
same,Granulation tissue Wet wt.,"[1]; Table V-a, 0.3 μg/pellet",499 ± 36 mg
same,Granulation tissue Wet wt. Inhibition,"[1]; Table V-a, 0.3 μg/pellet",5.0%
same,Thymus wt.,"[1]; Table V-a, 0.3 μg/pellet",501 ± 29 mg
same,Body wt. gain,"[1]; Table V-a, 1 μg/pellet",36.3 ± 0.9 g
same,Granulation tissue Dry wt.,"[1]; Table V-a, 1 μg/pellet",57.0 ± 6.2 mg
same,Granulation tissue Dry wt. Inhibition,"[1]; Table V-a, 1 μg/pellet",28.8%
same,Granulation tissue Wet wt.,"[1]; Table V-a, 1 μg/pellet",437 ± 24 mg
same,Granulation tissue Wet wt. Inhibition,"[1]; Table V-a, 1 μg/pellet",16.8%
same,Thymus wt.,"[1]; Table V-a, 1 μg/pellet",566 ± 31 mg
same,Body wt. gain,"[1]; Table V-a, 3 μg/pellet",33.8 ± 1.3 g
same,Granulation tissue Dry wt.,"[1]; Table V-a, 3 μg/pellet",47.5 ± 5.0 mg
same,Granulation tissue Dry wt. Inhibition,"[1]; Table V-a, 3 μg/pellet",40.7%
same,Granulation tissue Wet wt.,"[1]; Table V-a, 3 μg/pellet",422 ± 32 mg
same,Granulation tissue Wet wt. Inhibition,"[1]; Table V-a, 3 μg/pellet",19.6%
same,Thymus wt.,"[1]; Table V-a, 3 μg/pellet",500 ± 27 mg
same,Body wt. gain,"[1]; Table V-a, 10 μg/pellet",31.1 ± 1.7 g
same,Granulation tissue Dry wt.,"[1]; Table V-a, 10 μg/pellet",34.8 ± 5.5 mg
same,Granulation tissue Dry wt. Inhibition,"[1]; Table V-a, 10 μg/pellet",56.6%
same,Granulation tissue Wet wt.,"[1]; Table V-a, 10 μg/pellet",370 ± 21 mg
same,Granulation tissue Wet wt. Inhibition,"[1]; Table V-a, 10 μg/pellet",29.5%
same,Thymus wt.,"[1]; Table V-a, 10 μg/pellet",421 ± 30 mg
same,Relative potency (ED40),[1]; [2],133
same,Relative potency (ED60),[1]; [2],38
same,ED40,[1]; dose causing 40% inhibition of granulation tissue weight,2.31 μg/pellet
same,ED50,[1]; dose causing 50% inhibition of granulation tissue weight,6.45 μg/pellet
same,ED60,[1]; dose causing 60% inhibition of granulation tissue weight,18.01 μg/pellet
same,Body weight gain,"thymus weight in rats; Table VIII, 10 mg/kg/day s.c.",2.4 ± 1.8 g
same,Thymus wt.,"thymus weight in rats; Table VIII, 10 mg/kg/day s.c.",266 ± 20 mg
same,Thymus wt. Inhibition,"thymus weight in rats; Table VIII, 10 mg/kg/day s.c.",51.6%
"CC(C)OC(=O)O[C@]1(C(=O)OCCl)[C@@H](C)C[C@H]2[C@@H]3CCC4=CC(=O)C=C[C@]4(C)[C@@]3(F)C(=O)C[C@@]21C [chloromethyl 9α-fluoro-17α-isopropoxycarbonyloxy-16β-methylandrosta-1,4-dien-3,11-dione-17β-carboxylate]",Body wt. gain,"[1]; Table V-b, 1 μg/pellet",28.9 ± 1.1 g
same,Dry granulation Tissue,"[1]; Table V-b, 1 μg/pellet",59.1 ± 5.8 mg
same,Dry granulation Tissue Inhibition,"[1]; Table V-b, 1 μg/pellet",12.1%
same,Thymus wt.,"[1]; Table V-b, 1 μg/pellet",441 ± 24 mg
same,Body wt. gain,"[1]; Table V-b, 3 μg/pellet",25.8 ± 0.9 g
same,Dry granulation Tissue,"[1]; Table V-b, 3 μg/pellet",49.4 ± 3.7 mg
same,Dry granulation Tissue Inhibition,"[1]; Table V-b, 3 μg/pellet",26.5%
same,Thymus wt.,"[1]; Table V-b, 3 μg/pellet",519 ± 31 mg
same,Body wt. gain,"[1]; Table V-b, 10 μg/pellet",28.4 ± 0.8 g
same,Dry granulation Tissue,"[1]; Table V-b, 10 μg/pellet",51.1 ± 5.8 mg
same,Dry granulation Tissue Inhibition,"[1]; Table V-b, 10 μg/pellet",24.0%
same,Thymus wt.,"[1]; Table V-b, 10 μg/pellet",547 ± 35 mg
same,Body wt. gain,"[1]; Table V-b, 30 μg/pellet",27.4 ± 0.9 g
same,Dry granulation Tissue,"[1]; Table V-b, 30 μg/pellet",40.6 ± 3.6 mg
same,Dry granulation Tissue Inhibition,"[1]; Table V-b, 30 μg/pellet",39.6%
same,Thymus wt.,"[1]; Table V-b, 30 μg/pellet",536 ± 24 mg
"CC(C)OC(=O)O[C@]1(C(=O)OCCl)[C@H](C)C[C@H]2[C@@H]3CCC4=CC(=O)C=C[C@]4(C)[C@@]3(F)[C@@H](O)C[C@@]21C [chloromethyl 9α-fluoro-11β-hydroxy-17α-isopropoxycarbonyloxy-16α-methylandrosta-1,4-dien-3-one-17β-carboxylate]",Body weight gain,"thymus weight in rats; Table VIII, 10 mg/kg/day s.c.",2.7 ± 1.9 g
same,Thymus wt.,"thymus weight in rats; Table VIII, 10 mg/kg/day s.c.",234 ± 31 mg
same,Thymus wt. Inhibition,"thymus weight in rats; Table VIII, 10 mg/kg/day s.c.",57.5%
